{
  "source": "patent US10273313B2",
  "about": "“Multimeric mannosides, a process for preparing the same and their uses as a drug” (CENTRE NATIONAL DE LA RECHERCHE SCIENTIFIQUE, priority 2012, dated 2019)",
  "key": {"[1]": {"system": "primary human peripheral venous blood monocyte-derived macrophages", "test": "Macrophage-mediated phagocytosis of aged PMN cells", "assay_type": "cell-based", "details": "10 nM", "description": "To estimate the influence of mannose-based inhibitors on possible inhibition of phagocytosis we used primary human peripheral venous blood monocyte-derived macrophages and estimated their ability to phagocyte autologous and allogenic human blood-derived PMN cells, as described by us previous (Bilyy, R. O. et al. (2012) J Biol Chem 287, 496-503).\nPrimary human PMN and MoMa from healthy volunteers were used. Monocytes were isolated from peripheral blood by LymphoPrep® gradient according to manufacture's recommendations for isolation of PBMC fraction. Plastic-attached cells of PBMC fraction were then cultured for 7 days in the presence of GM-CSF (100 U/ml) and autologous serum (added at days 1, 3 and 5) to generate MoMa. After 7 days of differentiation, the MoMa population was tested. They typically contain >95% CD11b+ cells, >90% CD14+ cells and >85% CD89+ cells. Phagocytosis was assessed by pre-incubation of PMN (freshly isolated or aged for 24 h) with mannose-based inhibitor for 30 min at 37° C. at Ringer buffer. Cells were thoroughly washed three times with Ringer solution and incubated with human MoMa for 2 hours. Uningested PMN were analyzed by flow cytometry (for this reason cells were pre-stained with CFSE (Rodel, F. et al. (2005) Strahlentherapie and Onkologie: Organ der Deutschen Rontgengesellschaft . . . [et al] 181, 456-462)) or in the hemocytometric chamber using Zeiss AxioImager A1 microscope. The percentage of prey cells that had been bound to or taken up by MoMa (% of phagocytosis) was calculated."}, "[2]": {"system": "AIEC LF82 bacteria adhesion to T84 intestinal epithelial cells", "test": "Adhesion assay on T84 cells, pre-, co- and post-incubation protocols (Example 21.2)", "assay_type": "cell-based, Escherichia coli", "details": "for Concentration leading to decreased adhesion levels of at least 50%: pre-incubation assay", "description": "E. coli strain LF82 was isolated from a chronic ileal lesion of a patient with Crohn's disease (CD). Bacteria were grown routinely in Luria-Bertani (LB) broth overnight at 37° C. Intestinal epithelial cells T84 derived from colonic adenocarcinoma were maintained in an atmosphere containing 5% CO2 at 37° C. in DMEM/F12 (50/50) medium supplemented with 10% (v/v) heat-inactivated fetal calf serum (FCS), 1% L-glutamine, 100 000 U·l^−1 penicillin, 100 mg·l^−1 streptomycin, 25 μg·l^−1 amphotericin B.\nT84 were seeded in 48-well plates at a concentration of 1.5×10^5 cells per well and grown for 48 h. AIEC LF82 bacteria were incubated 1 h with each mannoside prior the cell infection (pre-incubation protocol) or they were added simultaneously onto the cells (co-incubation protocol) in complete medium without antibiotics, containing heat inactivated fetal calf serum (FCS). Heptyl-mannose or compound 2 (example 1) were tested at a dose of 100; 10; 1 or 0.1 μM. D-D-mannose was tested at a dose of 10 000; 1 000; 100 or 10 μM and compound 1 (example 2bis) was tested at a concentration of 500; 100; 10 or 1 μM. Cells were infected with AIEC LF82 bacteria at a multiplicity of infection (MOI) of 10 bacteria per cell for 3 h at 37° C. For the post-incubation protocol, mannosides were incubated with cells for 3 h after bacterial infection. A washing step was realized before this post-incubation to eliminate non-adherent bacteria. Monolayers were washed in phosphate-buffered saline (PBS; pH 7.2) and cells were then lysed with 1% Triton X-100 in deionized water. Samples were diluted and plated onto Luria Bertani agar plates to determine the number of colony-forming units (CFU) recovered from the lysed monolayers. Results were expressed as percentages of residual adhesion, considering adhesion level of AIEC LF82 without mannoside treatment as 100%."}, "FimH": {"molecular_target": "FimH (Escherichia coli, UniProt P08191)", "sequence (P08191 22-300)": "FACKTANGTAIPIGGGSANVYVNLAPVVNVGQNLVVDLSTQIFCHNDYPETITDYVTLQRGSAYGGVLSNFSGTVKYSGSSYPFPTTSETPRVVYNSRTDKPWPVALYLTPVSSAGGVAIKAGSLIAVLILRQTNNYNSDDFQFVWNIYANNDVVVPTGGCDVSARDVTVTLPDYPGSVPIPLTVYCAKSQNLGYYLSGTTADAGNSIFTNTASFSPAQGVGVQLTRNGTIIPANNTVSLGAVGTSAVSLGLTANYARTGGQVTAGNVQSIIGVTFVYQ", "assay_type": "binding", "description": "Journal of the American Society for Mass Spectrometry, 2009. […] Tested compounds were added to wells following with FimH treatment.\nPlates were coated with 100 μl of 10 mg/ml solution of RNAse-B in 100 mM carbonate/bicarbonate buffer pH 9.6. […] 2 h. Then washed three times with 10 mM PBS containing 0.05% Tween-20. […] Wells were washed three times with 10 mM PBS+0.05% Tween-20. 100 μl of anti-body conjugated to horseradish peroxidase (1:5000) was added in buffer and incubated for 1 h at room temperature. Then washed three times with 10 mM PBS+0.05% Tween-20. Added 100 μl of TMB and incubated in dark for 2-5 min. The reaction was stopped with 100 μl/well 1N sulfuric acid. Plate absorbance was analyzed at 450 nm using microplate reader."}, "[3]": {"system": "type-1 piliated clinical E. coli isolate UTI89", "test": "Haemagglutination inhibition assay (HIA), guinea pig erythrocytes", "assay_type": "cell-based, Escherichia coli", "details": "for MIC: read-out: Minimal inhibitory concentration (MIC) on haemagglutination", "description": "Haemagglutination is observed as the red blood cells being held in suspension through the formation of a space-filling cross-linked network with the fimbriated bacteria.\nThe UIT89 clinical isolate was grown statically 37° C. for 48 hours in LB medium and analysed for haemagglutination of guinea pig red blood cells. Both bacteria and red blood cells (RBCs) were washed 3 times in ice-cold PBS (17 mM K/NaH2PO4, 150 mM NaCl). PBS was used for all dilutions. 96-well round-bottom microtiter plates were used for the dilutions. The titer for agglutination was determined in a 2-fold dilution series in PBS of the bacteria in a volume of 25 μL. Well 1 is a negative control without bacteria but 25 μL PBS. 25 μL PBS and 50 μL 5% RBCs were added to a final 100 μL volume. Upon 1 hour at 4° C., the titer was determined as the lowest concentration of bacteria that led to haemagglutination.\nA bacterial concentration of twice the determined haemagglutination titer was kept constant in the haemagglutination inhibition assays. First, a 2-fold dilution series of the inhibitory compounds was performed in 25 μL PBS. Instead, in well 1 only 25 μL PBS was added as a negative control. 25 μL of the bacterial solution and 50 μl of 5% red blood cells were added to reach a final volume of 100 μL."}},
  "note": "Like-named read-outs stand apart in the source and are kept apart here.",
  "data": [
    {"smiles": "OCC1OC(OCCCCCCCOCc2cn(CC3OC4OC5C(Cn6cc(COCCCCCCCOC7OC(CO)C(O)C(O)C7O)nn6)OC(OC6C(Cn7cc(COCCCCCCCOC8OC(CO)C(O)C(O)C8O)nn7)OC(OC7C(Cn8cc(COCCCCCCCOC9OC(CO)C(O)C(O)C9O)nn8)OC(OC8C(Cn9cc(COCCCCCCCOC%10OC(CO)C(O)C(O)C%10O)nn9)OC(OC9C(Cn%10cc(COCCCCCCCOC%11OC(CO)C(O)C(O)C%11O)nn%10)OC(OC%10C(Cn%11cc(COCCCCCCCOC%12OC(CO)C(O)C(O)C%12O)nn%11)OC(OC3C(O)C4O)C(O)C%10O)C(O)C9O)C(O)C8O)C(O)C7O)C(O)C6O)C(O)C5O)nn2)C(O)C(O)C1O", "note": "(centres unmarked) [Compound 2]", "values": [
      {"measurement": "Phagocytosis rate", "setting": "[1]", "result": "no phagocytosis decrease"},
      {"measurement": "Adhesion in the post-incubation protocol", "setting": "[2]; post-incubation, 10 μM", "result": "significant decreased adhesion"},
      {"measurement": "Concentration leading to decreased adhesion levels of at least 50%", "setting": "[2]", "result": 0.1, "unit": "µM"},
      {"measurement": "Inhibition of oligomannoside binding (FIG. 17)", "setting": "FimH; compounds 1, 2, 6 and HM compared", "result": "most potent inhibition"},
      {"measurement": "MIC", "setting": "[3]; Escherichia coli, UTI89 1.2 10^9 CFU/ml", "result": 1.56, "unit": "µM"},
      {"measurement": "MIC", "setting": "[3]; Escherichia coli, UTI89 1.4 10^8 CFU/ml", "result": 0.39, "unit": "µM"},
      {"measurement": "MIC", "setting": "[3]; Escherichia coli, UTI89 7 10^7 CFU/ml", "result": 0.24, "unit": "µM"},
      {"measurement": "Relative inhibitory potency (RIP), reference 1", "setting": "[3]; RIP (UTI89 1.2 10^9 CFU/ml)", "result": ">128"},
      {"measurement": "Relative inhibitory potency (RIP), reference HM", "setting": "[3]; RIP (UTI89 1.2 10^9 CFU/ml)", "result": 8},
      {"measurement": "Relative inhibitory potency (RIP), reference 1", "setting": "[3]; RIP (UTI89 1.4 10^8 CFU/ml)", "result": 256},
      {"measurement": "Relative inhibitory potency (RIP), reference HM", "setting": "[3]; RIP (UTI89 1.4 10^8 CFU/ml)", "result": 3},
      {"measurement": "Relative inhibitory potency (RIP), reference 1", "setting": "[3]; RIP (UTI89 7 10^7 CFU/ml)", "result": 263},
      {"measurement": "Relative inhibitory potency (RIP), reference HM", "setting": "[3]; RIP (UTI89 7 10^7 CFU/ml)", "result": 4}
    ]},
    {"smiles": "CCCCCCCO[C@H]1O[C@H](CO)[C@@H](O)[C@H](O)[C@@H]1O", "note": "[HM, Heptylmannoside, reference compound]", "values": [
      {"measurement": "Phagocytosis rate", "setting": "[1]", "result": "significantly decreased phagocytosis rate"},
      {"measurement": "Concentration leading to decreased adhesion levels of at least 50%", "setting": "[2]", "result": 10, "unit": "µM"},
      {"measurement": "Inhibition of FimH binding compared to FimH alone", "setting": "FimH; 5 nM", "result": "significantly inhibited FimH binding"},
      {"measurement": "Stability of activity in dissolved form", "setting": "FimH; HM after 1 month storage in dissolved form vs immediately dissolved", "result": "loosing activity in dissolved form"},
      {"measurement": "Relative inhibitory potency (RIP), reference 1", "setting": "[3]; RIP (UTI89 1.2 10^9 CFU/ml)", "result": ">16"},
      {"measurement": "Relative inhibitory potency (RIP), reference 3", "setting": "[3]; RIP (UTI89 1.2 10^9 CFU/ml)", "result": 16},
      {"measurement": "Relative inhibitory potency (RIP), reference 1", "setting": "[3]; RIP (UTI89 1.4 10^8 CFU/ml)", "result": 67},
      {"measurement": "Relative inhibitory potency (RIP), reference 3", "setting": "[3]; RIP (UTI89 1.4 10^8 CFU/ml)", "result": 33},
      {"measurement": "Relative inhibitory potency (RIP), reference 1", "setting": "[3]; RIP (UTI89 7 10^7 CFU/ml)", "result": 64},
      {"measurement": "Relative inhibitory potency (RIP), reference 3", "setting": "[3]; RIP (UTI89 7 10^7 CFU/ml)", "result": 32},
      {"measurement": "MIC", "setting": "[3]; UTI89 1.2 10^9 CFU/ml", "result": 12.5, "unit": "µM"},
      {"measurement": "MIC", "setting": "[3]; UTI89 1.4 10^8 CFU/ml", "result": 1.50, "unit": "µM"},
      {"measurement": "MIC", "setting": "[3]; UTI89 7 10^7 CFU/ml", "result": 0.98, "unit": "µM"}
    ]}
  ]
}
